Laboratory results as given in patent publication US20090124672A1 (priority 2007, published 2009).

Key:
[1] = tested on: Sprague-Dawley rats treated with DMCM; assay: Social interaction test, DMCM-induced anxiety; format: in vivo, rat; settings: 0.5 mg/kg DMCM
Description: (§1) Experienced observers blinded to the experimental conditions carried out the social interaction test in a square open field (60 cm by 60 cm, with 16 15×15 cm squares marked out on the floor). Pairs of rats receiving the same treatment were placed in the arena and the onset of social interactions recorded. This procedure has been validated by previous studies (Overstreet et al. (2002); Overstreet et al. (2003)). Rats were unfamiliar with the open field and lighting conditions were low in order to generate an intermediate level of anxiety-related behavior. Rat pairs matched according to weight and treatment were placed simultaneously in the open field. During the 5-min session, line crosses (by two forepaws) and time spent in social interaction (grooming, sniffing, following) were scored individually for each rat (Kampov-Polevoy et al., 2000; Overstreet et al., 2002, 2003).
(§2) Fifteen min later the rats received a second injection of 0.5 mg/kg DMCM (methyl 6,7-demethoxy-4-ethyl-β-carboline-3-carboxylate) or vehicle (acidified saline). The rats were placed in the open field arena 15 min after the second injection for recording social interaction and locomotor activity for 5-min. Approximately one week later the rats were treated with Compound A (3.75, 7.5 or 15 mg/kg). The 5-HT2C agonist mCPP (m-chlorophenylpiperazine; 0.5 mg/kg) or vehicle (saline) was given 15 min later. After another 15 min period, the social interaction and locomotor activity for five min were recorded.

[2] = target: T1, hALDH2 (recombinant human mitochondria ALDH) (Homo sapiens, UniProt P05091); assay: ALDH2 inhibition assay (NADH formation, formaldehyde substrate); format: biochemical; settings: for inhibition at 1 µM: read-out: hALDH2 inhibition (IC50 hALDH2 column)
T1 sequence (P05091 18-517): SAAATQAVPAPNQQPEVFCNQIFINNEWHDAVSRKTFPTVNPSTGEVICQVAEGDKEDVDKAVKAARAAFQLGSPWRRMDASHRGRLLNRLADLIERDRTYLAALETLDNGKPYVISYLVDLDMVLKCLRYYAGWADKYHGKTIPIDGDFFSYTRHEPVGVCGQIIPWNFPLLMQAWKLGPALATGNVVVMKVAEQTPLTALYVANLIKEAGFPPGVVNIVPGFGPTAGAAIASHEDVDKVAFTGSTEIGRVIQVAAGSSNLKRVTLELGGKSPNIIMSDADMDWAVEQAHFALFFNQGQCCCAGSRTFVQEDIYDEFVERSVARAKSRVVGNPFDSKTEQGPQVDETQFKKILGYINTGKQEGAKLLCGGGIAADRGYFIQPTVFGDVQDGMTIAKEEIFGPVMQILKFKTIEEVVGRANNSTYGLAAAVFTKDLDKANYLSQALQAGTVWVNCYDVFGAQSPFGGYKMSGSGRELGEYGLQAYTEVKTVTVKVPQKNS
Procedure, shortened: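 1 nM enzyme in 50 mM sodium phosphate pH 7.4 with 1.2 mM NAD+ and compound at 0.03–1000 nM; reaction started with 0.15 mM formaldehyde at 25 °C. NADH formation followed by fluorescence (ex 340/em 460 nm). IC50 from sigmoidal fits with floating Hill slope; apparent Ki from Morrison equation if tight binding.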

[3] = target: T2, hMAO-B (Homo sapiens, UniProt P27338); assay: MAO-B inhibition assay (Amplex Red, horseradish peroxidase-coupled); format: biochemical; settings: at 10 μM; read-out: hMAO-B inhibition (IC50 hMAO-B)
T2 construct: purchased Sigma M7441
T2 sequence (P27338 1-520): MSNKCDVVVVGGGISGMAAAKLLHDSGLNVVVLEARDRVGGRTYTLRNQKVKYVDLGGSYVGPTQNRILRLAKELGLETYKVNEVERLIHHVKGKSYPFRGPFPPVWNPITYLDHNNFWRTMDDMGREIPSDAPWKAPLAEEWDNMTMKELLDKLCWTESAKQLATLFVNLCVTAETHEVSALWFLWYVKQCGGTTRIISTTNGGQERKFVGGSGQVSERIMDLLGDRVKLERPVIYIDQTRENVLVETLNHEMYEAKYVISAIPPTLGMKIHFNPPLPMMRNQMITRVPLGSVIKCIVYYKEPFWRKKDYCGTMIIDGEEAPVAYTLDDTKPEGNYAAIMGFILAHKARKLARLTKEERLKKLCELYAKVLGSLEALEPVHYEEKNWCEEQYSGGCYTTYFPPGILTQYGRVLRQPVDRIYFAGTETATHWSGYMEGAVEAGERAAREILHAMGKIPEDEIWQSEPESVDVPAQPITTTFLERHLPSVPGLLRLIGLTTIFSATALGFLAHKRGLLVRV
Protocol: MAO-A (Sigma M7316) and MAO-B (Sigma M7441) inhibition assays were conducted in 96-well micro-plates according to the method described by Zhou et al. [Analytical Biochemistry 253, 169-174, 1997]. Both assays were performed in potassium phosphate buffer (0.1 M, pH 7.5) containing 0.5 mM tyramine (Sigma T2879), 0.12 mM N-acetyl-3,7-dihydrophenoxazine (Amplex Red, Invitrogen A12222), 1.2 unit/ml horseradish peroxidase (Sigma P2088), 0.6 unit/ml MAO-A or 2.5 unit/ml MAO-B, and various concentrations of test compounds (0.1 nM to 10 uM). Reactions were initiated by the addition of a pre-mixed solution of tyramine, horseradish peroxidase and Amplex Red, and were allowed to proceed at 37° C. for 30 min. Enzyme activities were determined by measuring absorbance at 570 nm (SpectralMax Plate reader), absorbance of oxidized Amplex Red generated by this horseradish peroxidase-coupled reaction. Nonspecifically formed products were determined in the presence of 2 and 10 µM clorgyline and deprenyl for MAO-A and MAO-B, respectively. IC50 values were determined by fitting concentration-inhibition data to sigmoidal dose-response curves with two-floating parameters: IC50 and Hill coefficient.

[4] = tested on: Sprague-Dawley rats treated with mCPP; assay: Social interaction test, mCPP-induced anxiety; format: in vivo, rat
Description: as §1, §2

| SMILES | inhibition at 10 µM [3] [%] | IC50 [2] [nM] | also measured |
| --- | --- | --- | --- |
| CCc1c(C(=O)OC)ncc2[nH]c3cc(OC)c(OC)cc3c12 [DMCM, methyl 6,7-demethoxy-4-ethyl-β-carboline-3-carboxylate, reference compound] |  |  | social interaction (effect of anxiogenic agent) ([1]; 15 min before test): substantially reduced social interaction; locomotor activity (effect of anxiogenic agent) ([1]; compared to controls): reduced locomotor activity |
| CC(=O)c1cccc(-c2coc3cc(OCc4noc(-c5cc(F)cc(C(F)(F)F)c5)n4)ccc3c2=O)c1 [PT-73, 3-(3-acetylphenyl)-7-({5-[3-fluoro-5-(trifluoromethyl)phenyl](1,2,4-oxadiazol-3-yl)}methoxy)chromen-4-one] | 10 |  | inhibition at 1 µM [2]: 18% |
| O=c1c(-c2ccc(O)cc2)coc2cc(OCc3nnc(-c4cc(F)cc(C(F)(F)F)c4)o3)ccc12 [PT-74, 7-({5-[3-fluoro-5-(trifluoromethyl)phenyl](1,3,4-oxadiazol-2-yl)}methoxy)-3-(4-hydroxyphenyl)chromen-4-one] | 22 | 5 |  |
| O=c1c(-c2ccc(O)cc2)coc2cc(OCc3nnc(-c4ccc(F)cc4)o3)ccc12 [PT-81, 7-{[5-(4-fluorophenyl)(1,3,4-oxadiazol-2-yl)]methoxy}-3-(4-hydroxyphenyl)chromen-4-one] | 12 | 0.4 |  |
| O=c1c(-c2ccc(O)cc2)coc2cc(OCc3ccncc3)ccc12 [PT-82, 3-(4-hydroxyphenyl)-7-(4-pyridylmethoxy)chromen-4-one] | 15 | 5 |  |
| O=C(COc1ccc2c(=O)c(-c3ccc(O)cc3)coc2c1)Nc1ccccc1C(F)(F)F [PT-84, 2-[3-(4-hydroxyphenyl)-4-oxochromen-7-yloxy]-N-[2-(trifluoromethyl)phenyl]-acetamide] | 20 | 15 |  |
| O=c1c(-c2ccc(O)cc2)coc2cc(OCCc3ccccc3)ccc12 [PT-87, 3-(4-hydroxyphenyl)-7-(2-phenylethoxy)chromen-4-one] | 21 |  | inhibition at 1 µM [2]: 0.04% |
| O=c1c(-c2ccc(O)cc2)coc2cc(OCCOc3ccc(Cl)cc3)ccc12 [PT-89, 7-[2-(4-chlorophenoxy)ethoxy]-3-(4-hydroxyphenyl)chromen-4-one] | 32 | 22 |  |
| C[C@@H](NC(=O)COc1ccc2c(=O)c(-c3ccc(O)cc3)coc2c1)c1ccc(F)cc1 [PT-90, N-[(1R)-1-(4-fluorophenyl)ethyl]-2-[3-(4-hydroxyphenyl)-4-oxochromen-7-yloxy]acetamide] | 12 | 6 |  |
| O=c1c(-c2ccc(O)cc2)coc2cc(OCc3ccccn3)ccc12 [PT-91, 3-(4-hydroxyphenyl)-7-(2-pyridylmethoxy)chromen-4-one] | 11 | 7 |  |
| COC(=O)c1coc(COc2ccc3c(=O)c(-c4ccc(O)cc4)coc3c2)n1 [PT-101, methyl 2-{[3-(4-hydroxyphenyl)-4-oxochromen-7-yloxy]methyl}-1,3-oxazole-4-carboxylate] | 34 | 5 |  |
| C[C@H](NC(=O)COc1ccc2c(=O)c(-c3ccc(O)cc3)coc2c1)c1ccc(F)cc1 [PT-103, N-[(1S)-1-(4-fluorophenyl)ethyl]-2-[3-(4-hydroxyphenyl)-4-oxochromen-7-yloxy]acetamide] | 29 | 8 |  |
| O=c1c(-c2ccc(O)cc2)coc2cc(OC[C@H](O)Cc3ccccc3)ccc12 [PT-109, 7-((2R)-2-hydroxy-3-phenylpropoxy)-3-(4-hydroxyphenyl)chromen-4-one] | 26 | 14 |  |
| CS(=O)(=O)Nc1ccc(-c2c(O)oc3cc(OCc4cccc(C(=O)O)c4)ccc3c2=O)cc1 [PT-111, 3-[(2-hydroxy-3-{4-[(methylsulfonyl)amino]phenyl}-4-oxochromen-7-yloxy)methyl]-benzoic acid] | 30 | 3 |  |
| Clc1cccc(N2CCNCC2)c1 [mCPP, m-chlorophenylpiperazine] |  |  | social interaction (effect of anxiogenic agent) ([4]; 0.5 mg/kg mCPP, 15 min before test): low social interaction score; locomotor activity (effect of anxiogenic agent) ([4]; 0.5 mg/kg mCPP, compared to controls): reduced locomotor activity; locomotor activity compared to vehicle-treated rats receiving mCPP ([4]; rats receiving mCPP 0.5 mg/kg): no effect |
